The values below come from US20240132492A1, “PYRIDOPYRIMIDINE-BASED COMPOUND AND APPLICATION THEREOF” (JINAN UNIVERSITY, priority 2021, published 2024).

Common to all, as to format: cell-based
Experiment [1] addresses T1, AKT1 (Homo sapiens, UniProt P31749).
T1 construct: AKT1, AKT2, and AKT3 proteins in H1975-OR cells; endogenous in cells; host or cells: H1975-OR (osimertinib-resistant H1975)
Nature of the experiment: Western Blot, degradation of AKT1 protein in H1975-OR cells. The settings on record: 1000 nM, 24 hours, maximum degradation rate. As to the method:
(§1) Cell line: Non-small cell lung cancer H1975-OR cell line, which is an Osimertinib resistant H1975 cell line, and could be obtained through low dose gradual addition culture. Specific method: H1975 cells were spread in a 10 cm culture dish at a convergence rate of 60-70%, added 50 nM of Osimertinib to the culture medium. After the cell state stabilized, the concentration of Osimertinib was gradually double to 3 μM.
(§2) Conventional Western Blot (immunoblotting) was used for detection, as follows: a certain number of H1975-OR cells were planted on a 96 well plate, adherent cultured in an incubator overnight, and added a certain concentration of compound to act for 24 hours. 1×SDS lysis buffer with protease and phosphatase inhibitors was used to lyse cells. Cell lysates were separated by SDS-PAGE and transferred to PVDF membrane. Then, at room temperature, the PCDF membrane was taken out and immersed in a sealing solution (5% BSA TBS solution containing 0.5% Tween-20) for sealing treatment for 1 hour, and then incubated with a specific primary antibody at 4° C. overnight. The imprints were washed with TBST and incubated with horseradish peroxidase (HRP) labeled secondary antibodies at room temperature for 2 hours. Finally, ECL plus fluorescence detection reagent (Thermo Scientific, Waltham, MA) was used for protein development, and the Amersham Imager 600 system (GE, America) was used for photography. The detection results were processed using ImageJ software to obtain the grayscale value G (Density).

Experiment [2] concerns the target T2, AKT2 (Homo sapiens, UniProt P31751).
T2 construct: AKT1, AKT2, and AKT3 proteins in H1975-OR cells; endogenous in cells; host or cells: H1975-OR (osimertinib-resistant H1975)
Kind of experiment: Western Blot, degradation of AKT2 protein in H1975-OR cells. Particulars: 1000 nM, 24 hours, maximum degradation rate. Here is the method:
as §1, §2
Background: In western blotting, separated proteins are transferred to a membrane and probed.

Experiment [3] has as its system H1975. Kind of experiment: CCK-8 tumor cell proliferation, H1975. Particulars: Homo sapiens, NCI-H1975, H1975 cells, 72 hours. Here is the method:
(§3) Tumor cells (see Table 2 to Table 5) were inoculated in 96-well plates in complete culture medium (2000-3000 cells/well). After overnight incubation, the compounds with different concentrations (0.000508 μM-10 μM) were used to treat the cells separately for 72 hours. CCK-8 (Cell Counting Kit 8, Dojindo Laboratories, Kumamoto, Japan) experiment was used to evaluate cell proliferation. GraphPad Prism 5.0 software (La Jolla, CA) was used to calculate the half-maximal inhibitory concentration (IC50) values by fitting the concentration response curve. Each IC50 value was represented as an average value±SD.

Experiment [4] relates to H1975OR. Nature of the experiment: CCK-8 tumor cell proliferation, H1975OR. Particulars: H1975OR cells (Osimertinib resistant), 72 hours. Here is the method:
as §1, §3

Experiment [5] relates to PC-9. Kind of experiment: CCK-8 tumor cell proliferation, PC-9. The settings on record: Homo sapiens, PC-9 cells, 72 hours. As to the method: as §3
Experiment [6] deals with A431. Kind of experiment: CCK-8 tumor cell proliferation, A431. The settings on record: Homo sapiens, A-431, A431 cells, 72 hours. Here is the method: as §3
For experiment [7], the system named is HCC827. Kind of experiment: CCK-8 tumor cell proliferation, HCC827. The settings on record: Homo sapiens, HCC827 cells, 72 hours. As to the method: as §3
Experiment [8] deals with H1299. Nature of the experiment: CCK-8 tumor cell proliferation, H1299. The settings on record: Homo sapiens, NCI-H1299, H1299 cells, 72 hours. As to the method:
as §3

For experiment [9], the target named is AKT3 (Homo sapiens, UniProt Q9Y243). Kind of experiment: Western Blot, degradation of AKT3 protein in H1975-OR cells. More on the design: endogenous in cells; host or cells: H1975-OR (osimertinib-resistant H1975). The settings on record: 1000 nM, 24 hours, maximum degradation rate. Here is the method: as §1, §2
Sequence of AKT3 (Q9Y243 whole entry): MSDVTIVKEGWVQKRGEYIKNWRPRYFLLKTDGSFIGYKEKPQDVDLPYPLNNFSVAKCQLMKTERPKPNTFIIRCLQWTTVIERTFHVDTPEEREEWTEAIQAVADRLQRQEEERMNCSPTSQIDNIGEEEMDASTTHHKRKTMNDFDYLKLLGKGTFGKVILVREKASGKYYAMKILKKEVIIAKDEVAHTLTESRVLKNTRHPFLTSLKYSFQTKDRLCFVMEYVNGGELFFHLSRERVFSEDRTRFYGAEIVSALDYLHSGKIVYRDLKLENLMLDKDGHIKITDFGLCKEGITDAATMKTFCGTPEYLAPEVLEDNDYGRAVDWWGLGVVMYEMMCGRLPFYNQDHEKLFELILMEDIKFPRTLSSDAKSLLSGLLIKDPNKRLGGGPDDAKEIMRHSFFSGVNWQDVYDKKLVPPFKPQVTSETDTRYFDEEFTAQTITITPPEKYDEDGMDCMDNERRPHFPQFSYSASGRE

T1 sequence (P31749 whole entry): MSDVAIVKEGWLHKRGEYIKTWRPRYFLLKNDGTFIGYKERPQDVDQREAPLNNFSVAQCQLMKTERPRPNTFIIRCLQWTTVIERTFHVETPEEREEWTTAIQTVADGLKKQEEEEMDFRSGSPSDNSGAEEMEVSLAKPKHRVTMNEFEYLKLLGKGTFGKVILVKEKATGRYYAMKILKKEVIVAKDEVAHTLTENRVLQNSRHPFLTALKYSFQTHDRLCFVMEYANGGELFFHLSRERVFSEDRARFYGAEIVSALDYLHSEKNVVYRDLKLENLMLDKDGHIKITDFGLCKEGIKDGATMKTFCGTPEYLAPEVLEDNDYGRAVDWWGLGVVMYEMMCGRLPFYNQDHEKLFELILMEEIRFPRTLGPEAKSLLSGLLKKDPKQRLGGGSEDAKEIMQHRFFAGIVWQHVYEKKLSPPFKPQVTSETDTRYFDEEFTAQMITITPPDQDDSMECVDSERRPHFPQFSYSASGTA
T2 sequence (P31751 whole entry): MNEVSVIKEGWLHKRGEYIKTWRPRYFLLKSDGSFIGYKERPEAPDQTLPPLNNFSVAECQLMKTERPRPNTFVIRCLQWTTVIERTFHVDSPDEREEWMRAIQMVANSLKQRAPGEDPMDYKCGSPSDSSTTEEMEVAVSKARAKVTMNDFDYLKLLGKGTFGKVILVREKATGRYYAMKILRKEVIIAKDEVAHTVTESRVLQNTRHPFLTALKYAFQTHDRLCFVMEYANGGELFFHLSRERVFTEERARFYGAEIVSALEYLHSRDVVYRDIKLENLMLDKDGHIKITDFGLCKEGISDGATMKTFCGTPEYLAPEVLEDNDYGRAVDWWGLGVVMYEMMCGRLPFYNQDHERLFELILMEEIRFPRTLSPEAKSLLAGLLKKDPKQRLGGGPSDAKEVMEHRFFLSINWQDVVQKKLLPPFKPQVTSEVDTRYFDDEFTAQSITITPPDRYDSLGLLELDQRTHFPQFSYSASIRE

As a reminder, the Dmax is the largest share of the target that was removed. Lower therefore signals shallow degradation. What is called IC50 is the concentration that gives 50% inhibition. For the compound `C=CC(=O)Nc1cccc(-n2c(=O)cc(C)c3cnc(Nc4ccc(N5CCN(CCOCCOCCNC(=O)CC67CC8CC(CC(C8)C6)C7)CC5)cc4OC)nc32)c1` [ZX-HYT-01], the Dmax at 1 µM is 59.2% in experiment [1], 27.2% in experiment [2] and 67.6% in experiment [9]. Further, the IC50 in experiment [3] turned out to be 3.27 ± 0.598 µM; in experiment [4] it was 2.01 ± 0.444 µM; in experiment [5], 1.57 ± 0.258 µM; in [6] it was 0.541 ± 0.0589 µM; in experiment [7] it was 0.141 ± 0.0372 µM; in [8], 10.4 ± 1.72 µM.
For `C=CC(=O)Nc1cccc(-n2c(=O)cc(C)c3cnc(Nc4ccc(N5CCN(CCCCCCNC(=O)CC67CC8CC(CC(C8)C6)C7)CC5)cc4OC)nc32)c1` [ZX-HYT-02, N-(3-(2-((4-(4-(6-(2-(((3R, 5R, 7R)-adamantan-1-yl)acetamido)hexyl)piperazin-1-yl)-2-methoxyphenyl)amino)-5-methyl-7-oxypyridino [2,3-d]pyrimidin-8 (7H)-yl)phenyl)acrylamide], the Dmax at 1 µM in experiment [1] came out at 0%; in [2], 0%; in [9], 30.8%. Moreover, the IC50 stood at 0.194 ± 0.063 µM in experiment [3]; 0.167 ± 0.025 µM in experiment [4]; 0.255 ± 0.0394 µM in experiment [5]; 0.102 ± 0.0095 µM in experiment [6]; 0.105 ± 0.00819 µM in [7]; 8.74 ± 1.12 µM in experiment [8].
`C=CC(=O)Nc1cccc(-n2c(=O)cc(C)c3cnc(Nc4ccc(N5CCN(CCCCCCCCNC(=O)CC67CC8CC(CC(C8)C6)C7)CC5)cc4OC)nc32)c1` [ZX-HYT-03, N-(3-(2-((4-(4-(8-(2-(((3R, 5R, 7R)-adamantan-1-yl)acetamido)octyl)piperazin-1-yl)-2-methoxyphenyl)amino)-5-methyl-7-oxypyridino [2,3-d]pyrimidin-8 (7H)-yl)phenyl)acrylamide]: the Dmax at 1 µM in experiment [1] stood at 78.9%; in experiment [2] it was 64.8%; in experiment [9], 89.1%. In addition, the IC50 came out at 0.844 ± 0.822 µM in [3]; 0.074 ± 0.004 µM in experiment [4]; 0.0536 ± 0.00753 µM in experiment [5]; 0.0299 ± 0.0028 µM in [6]; 0.0954 ± 0.0331 µM in experiment [7]; 0.876 ± 0.283 µM in [8].
With `C=CC(=O)Nc1cccc(-n2c(=O)cc(C)c3cnc(Nc4ccc(N5CCN(CCCCCCCCCCNC(=O)CC67CC8CC(CC(C8)C6)C7)CC5)cc4OC)nc32)c1` [ZX-HYT-04, N-(3-(2-((4-(4-(10-(2-(((3R, 5R, 7R)-adamantan-1-yl)acetylamino)decyl)piperazin-1-yl)-2-methoxyphenyl)amino)-5-methyl-7-oxypyridino [2,3-d]pyrimidin-8 (7H)-yl)phenyl)acrylamide], the Dmax at 1 µM in experiment [1] was found to be 0%; in experiment [2], 0%; in experiment [9] it was 26.6%. Also, the IC50 turned out to be 1.77 ± 0.187 µM in [3]; 0.083 ± 0.019 µM in [4]; 0.0181 ± 0.00105 µM in [5]; 0.0102 ± 0.002 µM in experiment [6]; 0.0555 ± 0.0327 µM in [7]; 0.305 ± 0.166 µM in experiment [8].
Regarding `C=CC(=O)Nc1cccc(-n2c(=O)cc(C)c3cnc(Nc4ccc(N5CCN(CCCCCCCCCCCCNC(=O)CC67CC8CC(CC(C8)C6)C7)CC5)cc4OC)nc32)c1` [ZX-HYT-05, N-(3-(2-((4-(4-(12-(2-(((3R, 5R, 7R)-adamantan-1-yl)acetylamino)dodecyl)piperazin-1-yl)-2-methoxyphenyl)amino)-5-methyl-7-oxypyridino [2,3-d]pyrimidin-8 (7H)-yl)phenyl)acrylamide], the Dmax at 1 µM turned out to be 34.4% in experiment [1], 29.9% in [2] and 71.9% in [9]. Also, the IC50 in experiment [3] amounted to 5.19 ± 4.59 µM; in experiment [4], 0.009 ± 0.002 µM; in [5], 0.0083 ± 0.000333 µM; in experiment [6], 0.00806 ± 0.0003 µM; in experiment [7] it was 0.126 ± 0.0216 µM; in experiment [8] it was 0.338 ± 0.0855 µM.
As for `COc1cc(N2CCN(CCCCCCCCCCCCNC(=O)CC34CC5CC(CC(C5)C3)C4)CC2)ccc1Nc1ncc2c(C)cc(=O)n(-c3cccc(NC(=O)C4CCCCC4)c3)c2n1` [ZX-HYT-13, N-(3-(2-((4-(4-(12-(2-(((3R, 5R, 7R)-adamantan-1-yl)acetylamino)dodecyl)piperazin-1-yl)-2-methoxyphenyl)amino)-5-methyl-7-oxypyridino [2,3-d]pyrimidin-8 (7H)-yl)phenyl)cyclohexane formamide], the IC50 was 6.96 ± 6.04 µM in [3]; 0.216 ± 0.032 µM in experiment [4]; more than 10 µM in experiment [5]; 2.29 ± 0.0474 µM in experiment [6]; 10.7 ± 3.88 µM in experiment [7]; more than 10 µM in experiment [8].
In the case of `C=CC(=O)Nc1ccc(-n2c(=O)cc(C)c3cnc(Nc4ccc(N5CCN(CCCCCCCCCCCCNC(=O)CC67CC8CC(CC(C8)C6)C7)CC5)cc4OC)nc32)cc1` [ZX-HYT-14, N-(4-(2-((4-(4-(12-(2-(((3R, 5R, 7R)-adamantan-1-yl)acetylamino)dodecyl)piperazin-1-yl)-2-methoxyphenyl)amino)-5-methyl-7-oxypyridino [2,3-d]pyrimidin-8 (7H)-yl)phenyl)acrylamide], the IC50 in experiment [3], in [4], in experiment [5], in experiment [6], in [7] and in [8] was more than 10 µM in each case.
Consider `COc1cc(N2CCN(CCCCCCCCCCCCNC(=O)CC34CC5CC(CC(C5)C3)C4)CC2)ccc1Nc1ncc2c(C)cc(=O)n(-c3ccc(NC(=O)C4CC4)cc3)c2n1` [ZX-HYT-15, N-(4-(2-((4-(4-(12-(2-(((3R, 5R, 7R)-adamantan-1-yl)acetylamino)dodecyl)piperazin-1-yl)-2-methoxyphenyl)amino)-5-methyl-7-oxypyridino [2,3-d]pyrimidin-8 (7H)-yl)phenyl)cyclopropane formamide], for which the IC50 is more than 10 µM in experiment [3]; more than 10 µM in experiment [4]; 4.8 ± 0.501 µM in experiment [5]; more than 10 µM in [6]; more than 10 µM in [7]; more than 10 µM in experiment [8].
Regarding `COc1cc(N2CCN(CCCCCCCCCCCCNC(=O)CC34CC5CC(CC(C5)C3)C4)CC2)ccc1Nc1ncc2c(C)cc(=O)n([C@H]3CC[C@@H](NC(=O)C4CC4)C3)c2n1` [ZX-HYT-20, N-((1R,3S)-3-(2-((4-(4-(12-(2-((3R, 5R, 7R)-adamantan-1-yl)acetylamino)dodecyl)piperazin-1-yl)-2-methoxyphenyl)amino)-5-methyl-7-oxypyridino [2,3-d]pyrimidin-8 (7H)-yl)cyclopentyl) cyclopropane formamide], the IC50 in experiment [5] came out at 0.295 µM; in [6], 0.106 µM.
In the case of `COc1cc(N2CCN(CCCCCCCCCCCCNC(=O)CC34CC5CC(CC(C5)C3)C4)CC2)ccc1Nc1ncc2c(C)cc(=O)n(C3CCCC3)c2n1` [ZX-HYT-24, 2-(((3R, 5R, 7R)-adamantan-1-yl)-N-(12-(4-(4-(8-cyclopentyl-5-methyl-7-oxy-7,8-dihydropyridinyl [2,3-d]pyrimidin-2-yl)amino)-3-methoxyphenyl)piperazin-1-yl)dodecyl) acetamide], the figures for the Dmax at 1 µM in experiment [1], in experiment [2] and in [9] were 0%, 0% and 51.5%, respectively. The IC50 in experiment [3] came to 2.67 ± 0.471 µM; in experiment [4] it was 0.734 ± 0.00594 µM; in experiment [6] it was 0.212 ± 0.0653 µM; in [7] it was 1.4 ± 0.248 µM.
